Laboratory results: US20260022142A1, “MACROCYCLIC IMMUNOMODULATORS” (Bristol-Myers Squibb Company, priority 2022, published 2026)
Bridge positions count the residues as written; N and C are the ends. Square brackets hold non-standard residues; d marks the D form. Peptide text beside a SMILES is read from it. * marks the point of attachment. ξ: configuration not given here. Phe(3-CF3) = N[C@@H](Cc1cccc(C(F)(F)F)c1)C(=O)O; Phe(4-COOH) = N[C@@H](Cc1ccc(C(=O)O)cc1)C(=O)O; Bip = N[C@@H](Cc1ccc(-c2ccccc2)cc1)C(=O)O; Phe(3-Me) = Cc1cccc(C[C@H](N)C(=O)O)c1; Val(3-OH) = CC(C)(O)[C@H](N)C(=O)O; 4Pal = N[C@@H](Cc1ccncc1)C(=O)O; 3Thi = N[C@@H](Cc1ccsc1)C(=O)O; Cha = N[C@@H](CC1CCCCC1)C(=O)O; Cit = NC(=O)NCCC[C@H](N)C(=O)O; Thr(3ξ) = CC(O)[C@H](N)C(=O)O; 12Ado = NCCCCCCCCCCCC(=O)O; dNle = CCCC[C@@H](N)C(=O)O; Carboxymethyl = O=C(O)C*; Orn = NCCC[C@H](N)C(=O)O; Aun = NCCCCCCCCCCC(=O)O; Dab = NCC[C@H](N)C(=O)O; Nva = CCC[C@H](N)C(=O)O; Dap = NC[C@H](N)C(=O)O; AEEA = NCCOCCOCC(=O)O

Molecular target: T1, PD-1/PD-L1 interaction (PE-labeled human PD-L1-Ig binding to Jurkat cell line over-expressing human PD-1) (Homo sapiens, UniProt Q15116)
T1 construct: expressed in transfected cells; host or cells: Jurkat
Test: Jurkat-PD-1 Cell Binding High-Content Screening Assay (CBA)
Type: cell-based
Conditions: Jurkat cell line over-expressing human PD-1; PE-labeled PD-L1-Ig 20 nM final; read-out: Jurkat hPD1-PDL1 IC50
Outline: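 Read-out is high-content imaging of cell-bound phycoerythrin-tagged PD-L1-Ig on fixed, Hoechst-counterstained Jurkat cells that over-express human PD-1. Compound exposure lasts 2 h at 37° C before the labeled ligand (20 nM final) is added for a further hour.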

T1 sequence (Q15116 25-288): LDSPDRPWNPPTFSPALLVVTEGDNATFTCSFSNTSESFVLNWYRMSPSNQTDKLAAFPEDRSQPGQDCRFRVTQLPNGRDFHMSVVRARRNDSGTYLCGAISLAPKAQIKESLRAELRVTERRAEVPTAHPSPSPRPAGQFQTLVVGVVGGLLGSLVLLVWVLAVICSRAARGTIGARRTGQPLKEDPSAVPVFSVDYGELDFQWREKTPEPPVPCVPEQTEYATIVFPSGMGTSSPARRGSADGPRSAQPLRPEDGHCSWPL

IC50 [nM] | Structure (SMILES)
3.9 | CC(C)C[C@H]1NC(=O)[C@H](CCCN)NC(=O)[C@H](Cc2ccc(OCC(=O)O)cc2)NC(=O)[C@H](Cc2ccc(-c3ccccc3)cc2)NC(=O)[C@H](Cc2ccc(OCC(=O)O)cc2)NC(=O)[C@H](Cc2cccc(C(F)(F)F)c2)NC(=O)[C@H](CC(=O)O)NC(=O)[C@H](Cc2ccc(OCC(=O)O)cc2)NC(=O)[C@H](C(C)O)NC(=O)CSC[C@@H](C(=O)N[C@@H](CCN)C(=O)NCCCCCCCCCCC(=O)O)NC(=O)[C@H](CO)NC(=O)[C@H](C(C)(C)O)NC(=O)[C@H](CC2CCCCC2)NC(=O)[C@H](CCN)NC1=O (stereo partly drawn) [Compound 3818] ({CH2CO}-[Thr(3ξ)]Y(Carboxymethyl)D[Phe(3-CF3)]Y(Carboxymethyl)[Bip]Y(Carboxymethyl)[Orn][dL][Dab][Cha][Val(3-OH)]SC[Dab][Aun]-OH; thioether N-14)
6.2 | Cc1cccc(C[C@@H]2NC(=O)[C@H](CC(=O)O)NC(=O)[C@H](Cc3ccc(OCC(=O)O)cc3)NC(=O)[C@H](CCCNC(=N)N)NC(=O)CSC[C@@H](C(=O)NCCCCCCCCCCC(=O)O)NC(=O)[C@H](CCCN)NC(=O)[C@H](C(C)C)NC(=O)[C@H](CC3CCCCC3)NC(=O)[C@H](CCN)NC(=O)[C@@H](CC(C)C)NC(=O)[C@H](CCCN)NC(=O)[C@H](C(C)C)NC(=O)[C@H](Cc3ccc(-c4ccccc4)cc3)NC(=O)[C@H](C(C)C)NC2=O)c1 [Compound 3316] ({CH2CO}-RY(Carboxymethyl)D[Phe(3-Me)]V[Bip]V[Orn][dL][Dab][Cha]V[Orn]C[Aun]-OH; thioether N-14)
65.5 | Cc1cccc(C[C@@H]2NC(=O)[C@H](CC(=O)O)NC(=O)[C@H](Cc3ccc(OCC(=O)O)cc3)NC(=O)[C@H](CN)NC(=O)CSC[C@@H](C(=O)N[C@@H](CCN)C(=O)N[C@@H](CO)C(=O)N[C@@H](CO)C(=O)NCCCCCCCCCCC(=O)O)NC(=O)[C@H]([C@@H](C)O)NC(=O)[C@H](C(C)C)NC(=O)[C@H](CC3CCCCC3)NC(=O)[C@H](CCN)NC(=O)[C@@H](CC(C)C)NC(=O)[C@H](CCCN)NC(=O)[C@H](CCCNC(N)=O)NC(=O)[C@H](Cc3ccc(-c4ccccc4)cc3)NC(=O)[C@H](C(C)C)NC2=O)c1 [Compound 2853] ({CH2CO}-[Dap]Y(Carboxymethyl)D[Phe(3-Me)]V[Bip][Cit][Orn][dL][Dab][Cha]VTC[Dab]SS[Aun]-OH; thioether N-14)
76.2 | Cc1cccc(C[C@@H]2NC(=O)[C@H](CC(=O)O)NC(=O)[C@H](Cc3ccc(OCC(=O)O)cc3)NC(=O)[C@H](CCCNC(=N)N)NC(=O)CSC[C@@H](C(=O)N[C@@H](CCCCN)C(=O)N[C@@H](CO)C(=O)NCCCCCCCCCCCC(=O)O)NC(=O)[C@H](C(C)O)NC(=O)[C@H](C(C)C)NC(=O)[C@H](CC3CCCCC3)NC(=O)[C@H](CCN)NC(=O)[C@@H](CC(C)C)NC(=O)[C@H](CCCN)NC(=O)[C@H](CCCNC(=N)N)NC(=O)[C@H](Cc3ccc(-c4ccccc4)cc3)NC(=O)[C@H](Cc3ccc(O)cc3)NC2=O)c1 (stereo partly drawn) [Compound 3550] ({CH2CO}-RY(Carboxymethyl)D[Phe(3-Me)]Y[Bip]R[Orn][dL][Dab][Cha]V[Thr(3ξ)]CKS[12Ado]-OH; thioether N-14)
165 | Cc1cccc(C[C@@H]2NC(=O)[C@H](CC(=O)O)NC(=O)[C@H](Cc3ccc(OCC(=O)O)cc3)NC(=O)[C@H](Cc3ccncc3)NC(=O)CSC[C@@H](C(=O)N[C@@H](CCN)C(=O)NCCCCCCCCCCC(=O)O)NC(=O)[C@H](CO)NC(=O)[C@H](C(C)(C)O)NC(=O)[C@H](CC3CCCCC3)NC(=O)[C@H](CCN)NC(=O)[C@@H](CC(C)C)NC(=O)[C@H](CCCN)NC(=O)[C@H](Cc3ccc(C(=O)O)cc3)NC(=O)[C@H](Cc3ccc(-c4ccccc4)cc3)NC(=O)[C@H](Cc3ccc(C(=O)O)cc3)NC2=O)c1 [Compound 3716] ({CH2CO}-[4Pal]Y(Carboxymethyl)D[Phe(3-Me)][Phe(4-COOH)][Bip][Phe(4-COOH)][Orn][dL][Dab][Cha][Val(3-OH)]SC[Dab][Aun]-OH; thioether N-14)
21.3 | Cc1cccc(C[C@@H]2NC(=O)[C@H](CC(=O)O)NC(=O)[C@H](Cc3ccc(OCC(=O)O)cc3)NC(=O)[C@H](CCCNC(=N)N)NC(=O)CSC[C@@H](C(=O)N[C@@H](CO)C(=O)N[C@@H](CO)C(=O)NCCCCCCCCCCC(=O)O)NC(=O)[C@H]([C@@H](C)O)NC(=O)[C@H](C(C)C)NC(=O)[C@H](CC3CCCCC3)NC(=O)[C@H](CCN)NC(=O)[C@@H](CC(C)C)NC(=O)[C@H](CCCN)NC(=O)[C@H](CCCNC(N)=O)NC(=O)[C@H](Cc3ccc(-c4ccccc4)cc3)NC(=O)[C@H](C(C)C)NC2=O)c1 [Compound 2851] ({CH2CO}-RY(Carboxymethyl)D[Phe(3-Me)]V[Bip][Cit][Orn][dL][Dab][Cha]VTCSS[Aun]-OH; thioether N-14)
59 | CC(C)C[C@H]1NC(=O)[C@H](CCCCN)NC(=O)[C@H](C(C)C)NC(=O)[C@H](Cc2ccc(-c3ccccc3)cc2)NC(=O)[C@H](C(C)C)NC(=O)[C@H](Cc2c[nH]c3ccccc23)NC(=O)[C@H](CC(=O)O)NC(=O)[C@H](Cc2ccc(OCC(=O)O)cc2)NC(=O)[C@H](Cc2ccsc2)NC(=O)CSC[C@@H](C(=O)NCCOCCOCC(=O)N[C@@H](CCCN)C(=O)NCCCCCCCCCCC(=O)O)NC(=O)[C@H](C(C)O)NC(=O)[C@H](C(C)C)NC(=O)[C@H](CC2CCCCC2)NC(=O)[C@H](CCN)NC1=O (stereo partly drawn) [Compound 3167] ({CH2CO}-[3Thi]Y(Carboxymethyl)DWV[Bip]VK[dL][Dab][Cha]V[Thr(3ξ)]C[AEEA][Orn][Aun]-OH; thioether N-14)
13.2 | CCCC[C@H]1NC(=O)[C@H](CCCN)NC(=O)[C@H](C(C)C)NC(=O)[C@H](Cc2ccc(-c3ccccc3)cc2)NC(=O)[C@H](C(C)C)NC(=O)[C@H](Cc2cccc(C)c2)NC(=O)[C@H](CC(=O)O)NC(=O)[C@H](Cc2ccc(OCC(=O)O)cc2)NC(=O)[C@H](CN)NC(=O)CSC[C@@H](C(=O)N[C@@H](CCN)C(=O)NCCOCCOCC(=O)NCCCCCCCCCCC(=O)O)NC(=O)[C@H](CN)NC(=O)[C@H](C(C)C)NC(=O)[C@H](CC2CCCCC2)NC(=O)[C@H](CCN)NC1=O [Compound 2680] ({CH2CO}-[Dap]Y(Carboxymethyl)D[Phe(3-Me)]V[Bip]V[Orn][dNle][Dab][Cha]V[Dap]C[Dab][AEEA][Aun]-OH; thioether N-14)
2.7 | CCC[C@@H]1NC(=O)CSC[C@@H](C(=O)N[C@@H](CCN)C(=O)NCCOCCOCC(=O)NCCCCCCCCCCC(=O)O)NC(=O)[C@H](Cc2cnc[nH]2)NC(=O)[C@H](C(C)C)NC(=O)[C@H](CC2CCCCC2)NC(=O)[C@H](CCN)NC(=O)[C@@H](CC(C)C)NC(=O)[C@H](CCCN)NC(=O)[C@H](Cc2ccc(OCC(=O)O)cc2)NC(=O)[C@H](Cc2ccc(-c3ccccc3)cc2)NC(=O)[C@H](Cc2ccc(OCC(=O)O)cc2)NC(=O)[C@H](Cc2cccc(C)c2)NC(=O)[C@H](CC(=O)O)NC(=O)[C@H](Cc2ccc(OCC(=O)O)cc2)NC1=O [Compound 3803] ({CH2CO}-[Nva]Y(Carboxymethyl)D[Phe(3-Me)]Y(Carboxymethyl)[Bip]Y(Carboxymethyl)[Orn][dL][Dab][Cha]VHC[Dab][AEEA][Aun]-OH; thioether N-14)
